How the values were obtained:
Format in all cases: physicochemical
[1] = Stability of crystal form, influencing factor experiment
Method: The crystal form A of hydrochloride, the crystal form A of methanesulfonate, and the crystal form α of the acetate were placed flat and left open. The stability of the samples was investigated under conditions of illumination (4500 Lux), high temperature (40° C., 60° C.), and high humidity (RH 75%, RH 92.5%), and the sampling investigation period was 30 days.

[2] = Hygroscopicity study (dynamic vapor sorption); details: DVS, 25° C.
Method: DVS is dynamic vapor sorption: The detection was carried out using SMS DVS Advantage at 25° C. with a humidity change of 50%-95%-0%-95%-50% in steps of 10% (the last step was 5%) (the specific range of humidity was subject to the corresponding pattern, and most methods were listed here), and the judgment standard was that dm/dt was not greater than 0.002%.
Using Surface Measurement Systems advantage 2, starting at a humidity of 50% at 25° C., the humidity range was 0%-95%, the step was 10%, the judgment standard was that the mass change dM/dT of each gradient was less than 0.002%, the running time TMAX of each humidity gradient was 360 min, with two cycles, and the specific results are shown in Table 8.

[3] = Long-term/accelerated stability study
Method: The crystal form A of hydrochloride, the crystal form A of methanesulfonate, and the crystal form α of acetate were placed at 25° C./60% RH and 40° C./75% RH to investigate the stability, and the results are shown in Tables 10, 11, and 12 below.

In the case of `CC(C)NCC(C(=O)N1C2CCC1CN(c1ncnc3c1C(C)(C)C(=O)N3)C2)c1ccc(Cl)cc1.CS(=O)(=O)O` (stereo not drawn) [Crystal form A of methanesulfonate], the Crystal form ([1]; 40° C., 5 days, open) was “Untransformed”, the Purity % ([1]; 40° C., 5 days, open) was 99.9% and the Crystal form ([1]; 40° C., 10 days, open) was “Untransformed”. The Purity % ([1]; 40° C., 10 days, open) was 99.9%, the Crystal form ([1]; 40° C., 30 days, open) was “Untransformed” and the Purity % ([1]; 40° C., 30 days, open) was 99.9%. For the same compound, the Crystal form ([1]; 60° C., 5 days, open) was “Untransformed”, the Purity % ([1]; 60° C., 5 days, open) was 99.9% and the Crystal form ([1]; 60° C., 10 days, open) was “Untransformed”. The Purity % ([1]; 60° C., 10 days, open) was 99.9%, the Crystal form ([1]; 60° C., 30 days, open) was “Untransformed” and the Purity % ([1]; 60° C., 30 days, open) was 99.9%. For the same compound, the Crystal form ([1]; 75% RH, 5 days, open) was “Untransformed”, the Purity % ([1]; 75% RH, 5 days, open) was 99.9% and the Crystal form ([1]; 75% RH, 10 days, open) was “Untransformed”. For the same compound, the Purity % ([1]; 75% RH, 10 days, open) was 99.9%, the Crystal form ([1]; 75% RH, 30 days, open) was “Untransformed” and the Purity % ([1]; 75% RH, 30 days, open) was 99.9%. For the same compound, the Crystal form ([1]; 92.5% RH, 5 days, open) was “Untransformed”, the Purity % ([1]; 92.5% RH, 5 days, open) was 99.9% and the Crystal form ([1]; 92.5% RH, 10 days, open) was “Untransformed”. For the same compound, the Purity % ([1]; 92.5% RH, 10 days, open) was 99.9%, the Crystal form ([1]; 92.5% RH, 30 days, open) was “Untransformed” and the Purity % ([1]; 92.5% RH, 30 days, open) was 99.9%. For the same compound, the Crystal form ([1]; 4500 Lux, 5 days, open) was “Untransformed”, the Purity % ([1]; 4500 Lux, 5 days, open) was 99.9% and the Crystal form ([1]; 4500 Lux, 10 days, open) was “Untransformed”. The Purity % ([1]; 4500 Lux, 10 days, open) was 99.9%, the Crystal form ([1]; 4500 Lux, 30 days, open) was “Untransformed” and the Purity % ([1]; 4500 Lux, 30 days, open) was 99.9%. For the same compound, the Purity % ([1]; Onset, 0 days) was 99.9%, the “physical and chemical stability (conclusion)” value ([1]; illumination, 40° C. and 60° C., humidity 75% and 92.5%, 30 days) was “good physical and chemical stability” and the “mass change 0% RH-80.0% RH” value [2] was 0.31%. For the same compound, the “mass change 0.0% RH-95.0% RH” value [2] was 0.43%, the “Crystal form after hygroscopicity test” value ([2]; two cycles) was “Untransformed” and the Crystal form ([3]; 25° C./60% RH) was “Untransformed”. For the same compound, the “Purity % 1 month” value ([3]; 25° C./60% RH) was 99.9%, the “Purity % 2 month” value ([3]; 25° C./60% RH) was 99.8% and the “Purity % 3 month” value ([3]; 25° C./60% RH) was 99.8%. For the same compound, the “Purity % 6 month” value ([3]; 25° C./60% RH) was 99.9%, the “Purity % Onset” value ([3]; 25° C./60% RH) was 99.9% and the “physical and chemical stability (conclusion)” value ([3]; 25° C./60 RH and 40° C./75 RH, 6 months) was “good physical and chemical stability”. The Crystal form ([3]; 40° C./75% RH) was “Untransformed”, the “Purity % 1 month” value ([3]; 40° C./75% RH) was 99.9% and the “Purity % 2 month” value ([3]; 40° C./75% RH) was 99.8%. The “Purity % 3 month” value ([3]; 40° C./75% RH) was 99.8%, the “Purity % 6 month” value ([3]; 40° C./75% RH) was 99.8% and the “Purity % Onset” value ([3]; 40° C./75% RH) was 99.9%.

— patent US20250145641A1, “FUSED BICYCLIC DERIVATIVE, PHARMACEUTICALLY ACCEPTABLE SALT, CRYSTAL FORM THEREOF AND PREPARATION METHOD THEREFOR” (JIANGSU HENGRUI PHARMACEUTICALS CO., LTD., priority 2021, published 2025)
